This is an account of results in patent US11524944B2, “2-phenylpyrimidine-4-carboxamides as AHR inhibitors” (Bayer Aktiengesellschaft, priority 2017, dated 2022).

The target of one test is T1, Human AhR (Homo sapiens, UniProt P35869).
T1 construct: host or cells: U87 glioblastoma cells, stably transfected with a DRE firefly luciferase reporter and a constitutive renilla reporter
T1 sequence (P35869 11-848): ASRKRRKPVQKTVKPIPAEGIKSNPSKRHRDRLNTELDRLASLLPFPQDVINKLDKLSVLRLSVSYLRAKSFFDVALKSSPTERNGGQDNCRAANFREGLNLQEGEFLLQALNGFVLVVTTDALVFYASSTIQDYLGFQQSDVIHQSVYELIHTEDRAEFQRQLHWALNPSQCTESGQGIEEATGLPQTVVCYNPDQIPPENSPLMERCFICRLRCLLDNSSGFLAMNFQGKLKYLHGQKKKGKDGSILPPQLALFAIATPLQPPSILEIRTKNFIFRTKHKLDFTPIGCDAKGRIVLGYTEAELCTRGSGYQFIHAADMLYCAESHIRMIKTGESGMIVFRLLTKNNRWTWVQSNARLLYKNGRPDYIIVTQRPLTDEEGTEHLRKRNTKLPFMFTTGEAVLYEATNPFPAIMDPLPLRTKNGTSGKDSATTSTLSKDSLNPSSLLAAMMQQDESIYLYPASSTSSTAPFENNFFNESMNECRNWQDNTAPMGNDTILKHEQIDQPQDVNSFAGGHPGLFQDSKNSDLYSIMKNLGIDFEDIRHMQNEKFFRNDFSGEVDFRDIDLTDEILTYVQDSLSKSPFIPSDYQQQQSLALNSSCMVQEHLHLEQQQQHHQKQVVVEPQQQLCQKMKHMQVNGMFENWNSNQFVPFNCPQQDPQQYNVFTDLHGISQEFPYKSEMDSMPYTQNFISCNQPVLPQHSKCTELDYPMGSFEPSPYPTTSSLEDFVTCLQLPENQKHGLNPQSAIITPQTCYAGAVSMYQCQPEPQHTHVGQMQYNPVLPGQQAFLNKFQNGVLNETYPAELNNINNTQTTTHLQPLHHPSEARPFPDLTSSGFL
The test can be described thus: Transactivation assay in human cell line (in vitro assay 1): antagonism. The format is cell-based. As to conditions: U87 glioblastoma cells, AHR inducible firefly luciferase reporter (DRE), 150 μM kynurenic acid, 20 hours. In short, it runs like this: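 U87 glioblastoma cells with endogenous AHR, stably transfected with a DRE-driven firefly luciferase reporter and a constitutive Renilla reporter. Cells prestimulated with kynurenic acid before compound addition. Dual luciferase read-out, with Renilla signal used to flag toxicity.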
(In general: In a reporter assay the amount or activity of a reporter protein is the signal.)

The target in another test is T2, Mouse AhR (Mus musculus, UniProt P30561).
T2 sequence (P30561 1-848 P471L/N533S/M589L): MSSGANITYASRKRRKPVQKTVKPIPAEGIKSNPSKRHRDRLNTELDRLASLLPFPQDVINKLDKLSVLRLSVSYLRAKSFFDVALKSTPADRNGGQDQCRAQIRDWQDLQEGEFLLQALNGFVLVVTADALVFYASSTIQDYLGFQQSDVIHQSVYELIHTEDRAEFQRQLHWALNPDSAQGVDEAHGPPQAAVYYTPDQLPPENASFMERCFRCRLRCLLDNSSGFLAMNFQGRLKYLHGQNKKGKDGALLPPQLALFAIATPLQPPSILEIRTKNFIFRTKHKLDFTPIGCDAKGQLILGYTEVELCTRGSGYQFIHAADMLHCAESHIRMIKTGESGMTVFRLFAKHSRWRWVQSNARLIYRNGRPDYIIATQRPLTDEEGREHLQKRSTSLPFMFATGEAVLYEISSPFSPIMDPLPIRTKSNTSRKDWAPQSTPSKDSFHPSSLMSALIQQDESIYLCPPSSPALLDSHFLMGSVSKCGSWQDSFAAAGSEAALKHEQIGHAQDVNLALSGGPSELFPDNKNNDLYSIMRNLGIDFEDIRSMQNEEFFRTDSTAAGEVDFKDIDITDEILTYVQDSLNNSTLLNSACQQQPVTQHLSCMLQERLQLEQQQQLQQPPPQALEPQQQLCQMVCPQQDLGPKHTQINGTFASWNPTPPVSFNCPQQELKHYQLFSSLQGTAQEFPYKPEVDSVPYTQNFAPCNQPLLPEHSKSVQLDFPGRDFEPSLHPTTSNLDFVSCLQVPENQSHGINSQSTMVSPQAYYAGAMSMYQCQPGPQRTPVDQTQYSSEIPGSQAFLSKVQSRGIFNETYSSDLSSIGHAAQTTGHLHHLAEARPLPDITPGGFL
The experiment in a line: Transactivation assay in mouse cell line (in vitro assay 2): antagonism. The format is cell-based. As to conditions: Hepa 1c1c7 cells, AHR inducible firefly luciferase reporter (DRE), 200 μM kynurenic acid, 20 hours. How it is done:
Examples were tested in selected biological assays one or more times. When tested more than once, data are reported as either average values or as median values, wherein • the average value, also referred to as the arithmetic mean value, represents the sum of the values obtained divided by the number of times tested, and • the median value represents the middle number of the group of values when ranked in ascending or descending order. If the number of values in the data set is odd, the median is the middle value. If the number of values in the data set is even, the median is the arithmetic mean of the two middle values.
Transactivation Assay in Mouse Cell Line (In Vitro Assay 2)
Transactivation assay was carried out in Hepa 1c1c7 cells (ATCC #CRL-2026) endogenously expressing AHR. In addition the cells were stably transfected with an AHR inducible firefly luciferase reporter gene construct that carried AHR-binding sites (DRE) in its promoter. Kynurenic acid is an endogenous AHR activating ligand and was used to prestimulate test cells prior to testing the antagonistic properties of compounds.
In Vitro Assay 2: Antagonism in Mouse Cell Line
Firefly luciferase activity was determined by the SteadyGlo Luciferase Assay System (Promega, #E2550).

As to `COc1ccc(-c2nc(C(=O)N[C@@H](C)CO)cc(-c3ccc(Cl)cc3)n2)cc1` [Example 63, 6-(4-chlorophenyl)-N-[(2S)-1-hydroxypropan-2-yl]-2-(4-methoxyphenyl)pyrimidine-4-carboxamide], the results for the IC50 against Human AhR and on Mouse AhR were 392 nM and 5150 nM, respectively.
On the same counts, the results for `Cc1cccc(-c2nc(C(=O)N[C@@H](C)CO)cc(-c3ccc(Cl)cc3)n2)c1` [Example 64, 6-(4-chlorophenyl)-N-[(2S)-1-hydroxypropan-2-yl]-2-(3-methylphenyl)pyrimidine-4-carboxamide] are 7.2 nM and 52.6 nM.
On to `Cc1cc(-c2nc(C(=O)N[C@@H](C)CO)cc(-c3ccc(Cl)cc3)n2)ccc1F` [Example 65, 6-(4-chlorophenyl)-2-(4-fluoro-3-methylphenyl)-N-[(2S)-1-hydroxypropan-2-yl]pyrimidine-4-carboxamide], for which the IC50 on Human AhR is 48.5 nM; at Mouse AhR, 134 nM.
For `C[C@@H](CO)NC(=O)c1cc(-c2ccc(Cl)cc2)nc(-c2ccc(F)c(Cl)c2)n1` [Example 66, 2-(3-chloro-4-fluorophenyl)-6-(4-chlorophenyl)-N-[(2S)-1-hydroxypropan-2-yl]pyrimidine-4-carboxamide], the IC50 against Human AhR stood at 23.5 nM; against Mouse AhR, 148 nM.
As to `C[C@@H](CO)NC(=O)c1cc(-c2ccc(Cl)cc2)nc(-c2cccc(C#N)c2)n1` [Example 70, 6-(4-chlorophenyl)-2-(3-cyanophenyl)-N-[(2S)-1-hydroxypropan-2-yl]pyrimidine-4-carboxamide], the figures for the IC50 on Human AhR and against Mouse AhR were 19.3 nM and 215 nM, respectively.
Take `COc1cc(F)cc(-c2nc(C(=O)N[C@@H](C)CO)cc(-c3ccc(Cl)cc3)n2)c1` [Example 76, 6-(4-chlorophenyl)-2-(3-fluoro-5-methoxyphenyl)-N-[(2S)-1-hydroxypropan-2-yl]pyrimidine-4-carboxamide]: the IC50 is 36.8 nM at Human AhR and 81.5 nM against Mouse AhR.
For the compound `CC(NC(=O)c1cc(-c2ccc(OC(F)(F)F)cc2)nc(-c2cccc(F)c2)n1)C(O)CO` (stereo not shown) [Example 79, N-(3,4-dihydroxybutan-2-yl)-2-(3-fluorophenyl)-6-[4-(trifluoromethoxy)phenyl]pyrimidine-4-carboxamide], the figures for the IC50 against Human AhR and against Mouse AhR were 5.3 nM and 2.37 nM, respectively.
The corresponding values for `O=C(NC1CCCC(F)(F)C1O)c1cc(-c2ccc(OC(F)(F)F)cc2)nc(-c2cccc(F)c2)n1` (stereo not shown) [Example 80, N-(3,3-difluoro-2-hydroxycyclohexyl)-2-(3-fluorophenyl)-6-[4-(trifluoromethoxy)phenyl]pyrimidine-4-carboxamide] are 6.43 nM and 6.91 nM.

A word on the IC50: it is the concentration needed to halve the response being measured.
